Measurements reported in patent US9770026B2, “Substituted pyrimidine compound and uses thereof” (Shenyang Sinochem Agrochemicals R&D Co., Ltd., priority 2012, dated 2017).

Experiments:
cucumber gray mold = test: fungicidal activity in vitro (inhibition rate) against cucumber gray mold; type: cell-based; details: 25 ppm, in vitro; read-out: inhibition rate against cucumber gray mold
rice blast = test: microbe, parasite or virus in culture; type: cell-based; details: Pyricularia oryzae, read-out: inhibition rate against rice blast, 25 ppm, in vitro
[1] = tested on: Green peach aphids (Myzus Persicae Sulzer); test: bioactivity test against green peach aphid, airbrush foliar spray; type: in vivo; details: for pest or weed control at 10 µg/mL: 10 mg/L; for pest or weed control at 10 µg/mL / pest or weed control at 100 µg/mL / pest or weed control at 600 µg/mL / pest or weed control at 1.25 µg/mL / pest or weed control at 2.5 µg/mL / pest or weed control at 5 µg/mL: contrastive test, read-out: Insecticidal activity against peach aphid (%); for pest or weed control at 100 µg/mL: 100 mg/L; for pest or weed control at 600 µg/mL: 600 mg/L; for pest or weed control at 1.25 µg/mL: 1.25 mg/L; for pest or weed control at 2.5 µg/mL: 2.5 mg/L; for pest or weed control at 5 µg/mL: 5 mg/L
In short: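 Aphids (15-30 per cabbage leaf disc) on moist filter paper were airbrush-sprayed at 10 psi, 0.5 mL, with compound from acetone:methanol (1:1) diluted in water with 0.1% tween 80. Held at 25±1 C, 60±5% RH; survivors counted after 48 hrs to give death rates.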

cucumber downy mildew = test: protectant activity in vivo against cucumber downy mildew; details: Cucumis sativus, 168 h; for pest or weed control at 25 µg/mL: read-out: control effect against cucumber downy mildew (%), 25 mg/L; for pest or weed control at 50 µg/mL: read-out: control effect against cucumber downy mildew (%), 50 mg/L; for pest or weed control at 100 µg/mL: read-out: control effect against cucumber downy mildew (%), 100 mg/L; for pest or weed control at 400 µg/mL: read-out: control effect against cucumber downy mildew (%), 400 mg/L; for pest or weed control at 100 ppm: read-out: protectant activity against cucumber downy mildew in vivo, 100 ppm; for pest or weed control at 400 ppm: read-out: protectant activity against cucumber downy mildew in vivo, 400 ppm
carmine spider mite = test: bioactivity test against carmine spider mite, airbrush spray; type: in vivo; details: for pest or weed control at 600 µg/mL: 600 mg/L
In short: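 Broadbean seedlings infested with adult mites were sprayed with compound (acetone/methanol stock diluted in 0.1% Tween 80 water) by airbrush at 0.7 kg/cm^2, 0.5 ml. Three replicates were run. Mortality was scored after 72 hrs.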

wheat powdery mildew = test: protectant activity in vivo against wheat powdery mildew; details: Triticum aestivum, 168 h; for pest or weed control at 400 µg/mL: read-out: control effect against wheat powdery mildew (%), 400 mg/L, protectant activity; for pest or weed control at 400 ppm: read-out: protectant activity against wheat powdery mildew in vivo, 400 ppm
armyworm = test: bioactivity test against armyworm, airbrush spray; type: in vivo; details: 72 h; for pest or weed control at 600 µg/mL: 600 mg/L
Diamond back moth = test: insecticidal activity against diamond back moth, airbrush spray; type: in vivo; details: 72 h; for pest or weed control at 10 µg/mL: 10 mg/L; for pest or weed control at 100 µg/mL: 100 mg/L; for pest or weed control at 600 µg/mL: 600 mg/L
In short: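 Airbrush leaf-disc spray test: both faces of 2 cm cabbage discs received 0.5 ml of test solution at 0.7 kg/cm^2. Solutions were made in acetone:methanol (1:1) and brought to concentration with 0.1% Tween 80 in water. Ten second-instar larvae per disc, triplicates, were held at 25° C and 60˜70% R.H., with mortality recorded at 72 hrs.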

corn rust = test: protectant activity in vivo against corn rust; details: Zea mays, 168 h; for pest or weed control at 400 µg/mL: read-out: control effect against corn rust (%), 400 mg/L; for pest or weed control at 100 ppm: read-out: protectant activity against corn rust in vivo, 100 ppm
[2] = Tetranychus cinnabarinus, 72 h, contrastive test, read-out: Insecticidal activity against carmine spider mite (% )
[3] = read-out: Insecticidal activity against armyworm (%)
[4] = Myzus persicae, foliar, 48 h, death rate after 48 hrs
[5] = Tetranychus cinnabarinus, 72 h, mortality after 72 hrs
[6] = mortality after 72 hrs, read-out: control (test results against diamond back moth)

Cc1ncnc(NC(=O)Cc2ccc(Oc3ncc(C(F)(F)F)cc3Cl)cc2)c1Cl [CK60, reference compound]
inhibition at 25 ppm (cucumber gray mold): 0% | inhibition at 25 ppm (rice blast): 0% | pest or weed control at 10 µg/mL ([1]; Myzus persicae, foliar, 48 h): 0% | pest or weed control at 100 µg/mL ([1]; Myzus persicae, foliar, 48 h): 0% | pest or weed control at 600 µg/mL ([1]; Myzus persicae, foliar, 48 h): 81% | pest or weed control at 25 µg/mL (cucumber downy mildew; protectant activity): 0% | pest or weed control at 50 µg/mL (cucumber downy mildew; protectant activity): 0% | pest or weed control at 100 µg/mL (cucumber downy mildew; protectant activity): 10% | pest or weed control at 400 µg/mL (cucumber downy mildew; protectant activity): 100% | pest or weed control at 600 µg/mL (carmine spider mite; [2]): 0% | pest or weed control at 400 µg/mL (wheat powdery mildew): 0% | pest or weed control at 600 µg/mL (armyworm; [3]): 0% | pest or weed control at 10 µg/mL (Diamond back moth): 15% | pest or weed control at 100 µg/mL (Diamond back moth): 25% | pest or weed control at 600 µg/mL (Diamond back moth): 86% | pest or weed control at 400 µg/mL (corn rust; protectant activity): 0%

Cc1ncnc(NC(=O)Cc2ccc(Oc3ccc(C(F)(F)F)cc3)cc2)c1Cl [CK61, reference compound]
inhibition at 25 ppm (cucumber gray mold): 0% | inhibition at 25 ppm (rice blast): 0% | pest or weed control at 10 µg/mL ([1]; Myzus persicae, foliar, 48 h): 0% | pest or weed control at 100 µg/mL ([1]; Myzus persicae, foliar, 48 h): 0% | pest or weed control at 600 µg/mL ([1]; Myzus persicae, foliar, 48 h): 88% | pest or weed control at 25 µg/mL (cucumber downy mildew; protectant activity): 30% | pest or weed control at 50 µg/mL (cucumber downy mildew; protectant activity): 85% | pest or weed control at 100 µg/mL (cucumber downy mildew; protectant activity): 90% | pest or weed control at 400 µg/mL (cucumber downy mildew; protectant activity): 100% | pest or weed control at 600 µg/mL (carmine spider mite; [2]): 0% | pest or weed control at 400 µg/mL (wheat powdery mildew): 70% | pest or weed control at 600 µg/mL (armyworm; [3]): 0% | pest or weed control at 600 µg/mL (Diamond back moth): 0% | pest or weed control at 400 µg/mL (corn rust; protectant activity): 0%

CC(Cl)c1ncnc(NCCc2ccc(Oc3nc(Cl)c(Cl)cc3Cl)cc2)c1Cl (stereo not shown) [CK63, reference compound]
inhibition at 25 ppm (cucumber gray mold): 0% | inhibition at 25 ppm (rice blast): 0% | pest or weed control at 10 µg/mL ([1]; Myzus persicae, foliar, 48 h): 0% | pest or weed control at 100 µg/mL ([1]; Myzus persicae, foliar, 48 h): 0% | pest or weed control at 600 µg/mL ([1]; Myzus persicae, foliar, 48 h): 100% | pest or weed control at 400 µg/mL (cucumber downy mildew; protectant activity): 70% | pest or weed control at 600 µg/mL (carmine spider mite; [2]): 0% | pest or weed control at 400 µg/mL (wheat powdery mildew): 50% | pest or weed control at 600 µg/mL (armyworm; [3]): 71% | pest or weed control at 600 µg/mL (Diamond back moth): 57% | pest or weed control at 6.25 µg/mL (corn rust; read-out: control effect against corn rust (%), 6.25 mg/L, protectant activity): 0% | pest or weed control at 25 µg/mL (corn rust; read-out: control effect against corn rust (%), 25 mg/L, protectant activity): 0% | pest or weed control at 100 µg/mL (corn rust; read-out: control effect against corn rust (%), 100 mg/L, protectant activity): 30% | pest or weed control at 400 µg/mL (corn rust; protectant activity): 100%

CCc1ncnc(NCCc2ccc(Oc3ccc(Cl)nn3)cc2)c1Cl [Compound I-3309]
inhibition at 25 ppm (cucumber gray mold): 80 to 99% | inhibition at 25 ppm (rice blast): 80 to 99% | pest or weed control at 1.25 µg/mL ([1]; Myzus persicae, foliar, 48 h): 48% | pest or weed control at 2.5 µg/mL ([1]; Myzus persicae, foliar, 48 h): 96% | pest or weed control at 5 µg/mL ([1]; Myzus persicae, foliar, 48 h): 100% | pest or weed control at 10 µg/mL ([1]; Myzus persicae, foliar, 48 h): 100% | pest or weed control at 100 µg/mL ([1]; Myzus persicae, foliar, 48 h): 100% | pest or weed control at 600 µg/mL ([1]; Myzus persicae, foliar, 48 h): 100% | pest or weed control at 10 ppm [1, 4]: 100% | pest or weed control at 100 ppm [1, 4]: 100% | pest or weed control at 600 ppm [1, 4]: 100% | pest or weed control at 3.125 µg/mL (cucumber downy mildew; read-out: control effect against cucumber downy mildew (%), 3.125 mg/L, protectant activity): 50% | pest or weed control at 6.25 µg/mL (cucumber downy mildew; read-out: control effect against cucumber downy mildew (%), 6.25 mg/L, protectant activity): 60% | pest or weed control at 12.5 µg/mL (cucumber downy mildew; read-out: control effect against cucumber downy mildew (%), 12.5 mg/L, protectant activity): 70% | pest or weed control at 25 µg/mL (cucumber downy mildew; protectant activity): 90% | pest or weed control at 50 µg/mL (cucumber downy mildew; protectant activity): 90% | pest or weed control at 100 µg/mL (cucumber downy mildew; protectant activity): 90% | pest or weed control at 400 µg/mL (cucumber downy mildew; protectant activity): 100% | pest or weed control at 25 ppm (cucumber downy mildew; read-out: protectant activity against cucumber downy mildew in vivo, 25 ppm): 80 to 99% | pest or weed control at 50 ppm (cucumber downy mildew; read-out: protectant activity against cucumber downy mildew in vivo, 50 ppm): 80 to 99% | pest or weed control at 100 ppm (cucumber downy mildew): 80 to 99% | pest or weed control at 400 ppm (cucumber downy mildew): 100% | pest or weed control at 100 ppm (carmine spider mite; [5]): 80 to 99% | pest or weed control at 600 ppm (carmine spider mite; [5]): 80 to 99% | pest or weed control at 400 ppm (wheat powdery mildew): 100% | pest or weed control at 10 µg/mL (armyworm; 10 mg/L, read-out: Insecticidal activity against armyworm (%)): 60% | pest or weed control at 100 µg/mL (armyworm; 100 mg/L, read-out: Insecticidal activity against armyworm (%)): 100% | pest or weed control at 600 µg/mL (armyworm; [3]): 100% | pest or weed control at 100 ppm (armyworm; 100 ppm, mortality after 72 h): 100% | pest or weed control at 600 ppm (armyworm; mortality after 72 h): 100% | pest or weed control at 10 µg/mL (Diamond back moth): 60% | pest or weed control at 100 µg/mL (Diamond back moth): 100% | pest or weed control at 600 µg/mL (Diamond back moth): 100% | pest or weed control at 100 ppm (Diamond back moth; 100 ppm, mortality after 72 hrs, read-out: control (test results against diamond back moth)): 100% | pest or weed control at 600 ppm (Diamond back moth; [6]): 100% | pest or weed control at 100 ppm (corn rust): 80 to 99%

CCc1ncnc(NCCc2ccc(Oc3ccc(C(F)(F)F)cc3)cc2)c1Cl [II-347]
inhibition at 25 ppm (cucumber gray mold): 80 to 99% | inhibition at 25 ppm (rice blast): 80 to 99% | control (test results against green peach aphid) ([1]; 2.5 ppm, death rate after 48 hrs): 100% | pest or weed control at 1.25 µg/mL ([1]; Myzus persicae, foliar, 48 h): 81% | pest or weed control at 2.5 µg/mL ([1]; Myzus persicae, foliar, 48 h): 100% | pest or weed control at 5 µg/mL ([1]; Myzus persicae, foliar, 48 h): 100% | pest or weed control at 10 µg/mL ([1]; Myzus persicae, foliar, 48 h): 100% | pest or weed control at 100 µg/mL ([1]; Myzus persicae, foliar, 48 h): 100% | pest or weed control at 600 µg/mL ([1]; Myzus persicae, foliar, 48 h): 100% | pest or weed control at 5 ppm ([1]; Myzus persicae, foliar, 48 h, 5 ppm, death rate after 48 hrs): 100% | pest or weed control at 10 ppm [1, 4]: 100% | pest or weed control at 100 ppm [1, 4]: 100% | pest or weed control at 600 ppm [1, 4]: 100% | pest or weed control at 100 ppm (cucumber downy mildew): 80 to 99% | pest or weed control at 400 ppm (cucumber downy mildew): 100% | Insecticidal activity against carmine spider mite (% ) (carmine spider mite; 2.5 mg/L): 75% | Insecticidal activity against carmine spider mite (% ) (carmine spider mite; 5 mg/L): 90% | pest or weed control at 10 µg/mL (carmine spider mite; Tetranychus cinnabarinus, 72 h, 10 mg/L, contrastive test, read-out: Insecticidal activity against carmine spider mite (% )): 100% | pest or weed control at 100 µg/mL (carmine spider mite; Tetranychus cinnabarinus, 72 h, 100 mg/L, contrastive test, read-out: Insecticidal activity against carmine spider mite (% )): 100% | pest or weed control at 600 µg/mL (carmine spider mite; [2]): 100% | pest or weed control at 10 ppm (carmine spider mite; Tetranychus cinnabarinus, 72 h, 10 ppm, mortality after 72 hrs): 100% | pest or weed control at 100 ppm (carmine spider mite; [5]): 100% | pest or weed control at 600 ppm (carmine spider mite; [5]): 100% | pest or weed control at 25 ppm (wheat powdery mildew; read-out: protectant activity against wheat powdery mildew in vivo, 25 ppm): 100% | pest or weed control at 100 ppm (wheat powdery mildew; read-out: protectant activity against wheat powdery mildew in vivo, 100 ppm): 100% | pest or weed control at 400 ppm (wheat powdery mildew): 100% | pest or weed control at 600 ppm (armyworm; mortality after 72 h): 100% | pest or weed control at 10 µg/mL (Diamond back moth): 65% | pest or weed control at 100 µg/mL (Diamond back moth): 70% | pest or weed control at 600 µg/mL (Diamond back moth): 100% | pest or weed control at 600 ppm (Diamond back moth; [6]): 100% | pest or weed control at 6.25 ppm (corn rust; read-out: protectant activity against corn rust in vivo, 6.25 ppm): 80 to 99% | pest or weed control at 25 ppm (corn rust; read-out: protectant activity against corn rust in vivo, 25 ppm): 80 to 99% | pest or weed control at 100 ppm (corn rust): 100% | pest or weed control at 400 ppm (corn rust; read-out: protectant activity against corn rust in vivo, 400 ppm): 100%
